Experimental data from ChEMBL document CHEMBL1136834 (Bioorg Med Chem Lett, 2009).
Activity calls are given as the source filed them. The rule behind the calls is not given here.

How the values were obtained:
Mu-type opioid receptor [1] = target: T1, Mu-type opioid receptor (Homo sapiens, UniProt P35372); test: Antagonist activity at human mu opioid receptor expressed in CHO cells assessed as inhibition of DAMGO-induced [35S]GTPgammaS binding; assay type: functional, cell-based
Mu-type opioid receptor [2] = target: T1, Mu-type opioid receptor; test: Displacement of [3H]DAMGO from human mu opioid receptor expressed in CHO cells; assay type: cell-based
CHO [3] = test: Ratio of Ki for human delta opioid receptor to Ki for human kappa opioid receptor expressed in CHO cells; assay type: cell-based
[4] = target: Delta-type opioid receptor (Homo sapiens, UniProt P41143); test: Displacement of [3H]Naltrindole from human delta opioid receptor expressed in CHO cells; assay type: cell-based
Delta-type opioid receptor, sequence (P41143 whole entry): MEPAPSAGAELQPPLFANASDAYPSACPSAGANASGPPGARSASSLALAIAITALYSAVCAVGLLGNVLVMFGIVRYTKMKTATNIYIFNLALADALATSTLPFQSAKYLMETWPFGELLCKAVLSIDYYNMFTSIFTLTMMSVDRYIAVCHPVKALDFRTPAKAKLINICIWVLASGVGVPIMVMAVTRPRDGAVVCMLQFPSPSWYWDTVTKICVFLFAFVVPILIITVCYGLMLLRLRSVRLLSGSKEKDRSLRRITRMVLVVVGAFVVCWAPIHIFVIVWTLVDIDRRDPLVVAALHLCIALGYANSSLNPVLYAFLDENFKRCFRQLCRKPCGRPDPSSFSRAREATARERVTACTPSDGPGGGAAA

[5] = target: T2, Kappa-type opioid receptor (Homo sapiens, UniProt P41145); test: Displacement of [3H]U69,593 from human kappa opioid receptor expressed in CHO cells; assay type: cell-based
T2 sequence (P41145 whole entry): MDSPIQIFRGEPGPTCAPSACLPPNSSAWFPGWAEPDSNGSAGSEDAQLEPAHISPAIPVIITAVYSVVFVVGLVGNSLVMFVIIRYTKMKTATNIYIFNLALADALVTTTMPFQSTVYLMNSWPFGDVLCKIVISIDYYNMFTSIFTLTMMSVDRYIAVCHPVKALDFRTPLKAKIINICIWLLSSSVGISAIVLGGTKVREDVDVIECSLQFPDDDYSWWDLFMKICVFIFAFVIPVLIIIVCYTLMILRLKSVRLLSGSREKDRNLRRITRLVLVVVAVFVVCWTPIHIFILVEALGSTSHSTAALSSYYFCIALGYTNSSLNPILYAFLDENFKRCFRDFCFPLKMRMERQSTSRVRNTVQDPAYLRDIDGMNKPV

CHO [6] = test: Ratio of Ki for human mu opioid receptor to Ki for human kappa opioid receptor expressed in CHO cells; assay type: cell-based
Mu-type opioid receptor [7] = target: T1, Mu-type opioid receptor; test: Agonist activity at human mu opioid receptor expressed in CHO cells assessed as stimulation of [35S]GTPgammaS binding relative to basal [35S]GTPgammaS binding; assay type: functional, cell-based
Mu-type opioid receptor [8] = target: T1, Mu-type opioid receptor; test: Antagonist activity at human mu opioid receptor expressed in CHO cells assessed as inhibition of DAMGO-induced [35S]GTPgammaS binding at 10 uM; assay type: functional, cell-based
[9] = target: T2, Kappa-type opioid receptor; test: Agonist activity at human kappa opioid receptor expressed in CHO cells assessed as stimulation of [35S]GTPgammaS binding; assay type: functional, cell-based
Mu-type opioid receptor [10] = target: T1, Mu-type opioid receptor; test: Agonist activity at human mu opioid receptor expressed in CHO cells assessed as stimulation of [35S]GTPgammaS binding; assay type: functional, cell-based
[11] = Displacement of [3H]Naltrindole from human delta opioid receptor expressed in CHO cells

T1 sequence (P35372 whole entry): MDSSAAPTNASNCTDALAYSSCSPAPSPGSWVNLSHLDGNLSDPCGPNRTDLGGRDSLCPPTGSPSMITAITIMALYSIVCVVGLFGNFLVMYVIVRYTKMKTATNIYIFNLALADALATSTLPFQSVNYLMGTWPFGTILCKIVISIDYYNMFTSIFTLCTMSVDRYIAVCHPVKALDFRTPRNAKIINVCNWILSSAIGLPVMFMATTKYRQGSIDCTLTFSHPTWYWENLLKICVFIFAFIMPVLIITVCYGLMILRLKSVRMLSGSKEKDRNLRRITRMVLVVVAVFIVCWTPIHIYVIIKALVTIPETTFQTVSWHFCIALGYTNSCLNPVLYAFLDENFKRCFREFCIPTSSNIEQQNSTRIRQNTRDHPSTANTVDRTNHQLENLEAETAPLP

Compound | Imax (Mu-type opioid receptor [1]) | Ki (Mu-type opioid receptor [2]) [nM] | Ratio Ki (CHO [3]) | Ki [4] [nM] | Ki [5] [nM] | Ratio Ki (CHO [6]) | Emax (Mu-type opioid receptor [7]) [%] | EC50 [9] [nM] | other results
C[C@@H](NC(=O)[C@@H](N)Cc1ccc(O)cc1)C(=O)NCC(=O)N(C)[C@@H](Cc1ccccc1)C(=O)NCCO [DAMGO] | inactive | – | – | – | – | – | – | – | IC50 (Mu-type opioid receptor [1]; cho): Not Active
Cc1nc2c3c(ccc2[nH]1)CC1[C@H](C)[C@]3(C)CCN1CC1CC1 | – | 2.5 | 310 | 160 | 0.51 | 5 | – | – | –
C[C@H]1C2Cc3cc4nn[nH]c4cc3[C@@]1(C)CCN2CC1CC1 | – | – | – | – | – | – | < 20 | 77 | Imax (Mu-type opioid receptor [8]): 73%
C[C@H]1C2Cc3ccc4[nH]nnc4c3[C@@]1(C)CCN2CC1CC1 | 98% | – | – | – | – | – | 0.58 | 8.6 | IC50 (Mu-type opioid receptor [1]; read-out: IC50): 99 nM
C[C@H]1C2Cc3ccc4[nH]cnc4c3[C@@]1(C)CCN2CC1CC1 | – | 9.5 | 740 | 680 | 0.92 | 10 | – | – | –
Cc1nc2cc3c(cc2[nH]1)[C@@]1(C)CCN(CC2CC2)C(C3)[C@@H]1C | 100% | 0.77 | – | 18 | 0.05 | – | 55 | 5.8 | IC50 (Mu-type opioid receptor [1]; read-out: IC50): 11000 nM; EC50 (Mu-type opioid receptor [10]): 18 nM
C[C@H]1[C@H]2Cc3ccc(O)cc3[C@]1(C)CCN2CC1CC1 [CYCLAZOCINE] | – | – | – | 2 | 0.07 | – | – | 1.3 | –
C[C@H]1C2Cc3cc4nc(O)[nH]c4cc3[C@@]1(C)CCN2CC1CC1 | – | 60 | 61 | 730 | 12 | 5 | – | – | –
C[C@H]1C2Cc3cc4[nH]cnc4cc3[C@@]1(C)CCN2CC1CC1 | – | 0.31 | – | 5.1 | 0.063 | – | – | 4.7 | IC50 (Mu-type opioid receptor [1]; read-out: IC50): 170 nM; EC50 (Mu-type opioid receptor [10]): 9.8 nM
C[C@H]1C2Cc3cc4nc[nH]c4cc3[C@@]1(C)CCN2CC1CC1 | 89% | – | – | – | – | – | 22 | – | –
C[C@H]1C2Cc3cc4cc[nH]c4cc3[C@@]1(C)CCN2CC1CC1 | – | 18 | 36 | – | 7 | 3 | – | – | Ki [11]: 250 nM
